Activity calls are given as the source filed them. The calls are words filed in the database; no cut-off is given here.
Key:
[1] = biological target: T1, Tyrosine-protein phosphatase non-receptor type 1 (Homo sapiens) (UniProt P18031); assay: Inhibition of PTP1B (unknown origin) using p-nitrophenyl phosphate as substrate at 100 uM
T1 sequence (whole entry): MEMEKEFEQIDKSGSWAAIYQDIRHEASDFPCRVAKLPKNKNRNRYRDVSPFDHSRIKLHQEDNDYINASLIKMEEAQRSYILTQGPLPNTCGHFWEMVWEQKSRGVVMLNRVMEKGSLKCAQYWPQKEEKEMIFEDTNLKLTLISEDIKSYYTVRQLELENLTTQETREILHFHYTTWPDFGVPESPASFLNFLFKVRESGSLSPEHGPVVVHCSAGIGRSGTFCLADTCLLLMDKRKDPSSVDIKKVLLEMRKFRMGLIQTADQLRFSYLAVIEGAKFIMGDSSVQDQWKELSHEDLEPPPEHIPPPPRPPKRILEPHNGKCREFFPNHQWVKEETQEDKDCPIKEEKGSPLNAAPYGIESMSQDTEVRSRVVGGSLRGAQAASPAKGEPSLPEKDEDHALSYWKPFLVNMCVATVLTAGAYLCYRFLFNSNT

[2] = biological target: T2, Tyrosine-protein phosphatase non-receptor type 1 (Homo sapiens, UniProt P18031); assay: Inhibition of PTP1B (unknown origin) using p-nitrophenyl phosphate as substrate
T2 sequence (P18031 whole entry): T1 sequence (whole entry)

[3] = biological target: Dual specificity protein phosphatase 3 (Homo sapiens) (UniProt P51452); assay: Inhibition of VHR (unknown origin) at 100 uM
Sequence of Dual specificity protein phosphatase 3 (Homo sapiens) (P51452 whole entry, looked up): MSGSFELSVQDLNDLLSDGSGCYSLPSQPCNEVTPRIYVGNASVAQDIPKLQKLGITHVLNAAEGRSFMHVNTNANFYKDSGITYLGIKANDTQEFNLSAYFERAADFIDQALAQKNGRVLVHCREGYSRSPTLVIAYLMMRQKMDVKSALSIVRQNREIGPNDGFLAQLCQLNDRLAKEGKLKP

[4] = biological target: T3, Tyrosine-protein phosphatase non-receptor type 2 (Homo sapiens) (UniProt P17706); assay: Inhibition of TCPTP (unknown origin) at 100 uM
T3 sequence (whole entry): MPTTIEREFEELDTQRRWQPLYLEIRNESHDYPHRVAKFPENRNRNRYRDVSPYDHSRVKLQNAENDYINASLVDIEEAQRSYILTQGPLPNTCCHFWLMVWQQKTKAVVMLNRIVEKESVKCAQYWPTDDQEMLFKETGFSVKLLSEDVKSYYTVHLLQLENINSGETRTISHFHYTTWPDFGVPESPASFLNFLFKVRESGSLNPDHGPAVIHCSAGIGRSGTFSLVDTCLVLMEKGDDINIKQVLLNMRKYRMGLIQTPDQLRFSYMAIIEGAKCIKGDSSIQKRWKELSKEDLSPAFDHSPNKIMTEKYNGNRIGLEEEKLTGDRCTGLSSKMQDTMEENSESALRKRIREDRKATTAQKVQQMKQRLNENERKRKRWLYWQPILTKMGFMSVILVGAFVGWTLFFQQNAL

[5] = biological target: T1, Tyrosine-protein phosphatase non-receptor type 1 (Homo sapiens)
Description: Competitive inhibition of PTP1B (unknown origin) using p-nitrophenyl phosphate as substrate by Lineweaver-Burk plot analysis

[6] = biological target: T1, Tyrosine-protein phosphatase non-receptor type 1 (Homo sapiens); assay: Inhibition of PTP1B in human HepG2 cells assessed as increase of insulin-induced Akt phosphorylation at Ser473 at 20 to 100 uM after 5 mins by Western blotting; assay type: cell-based
[7] = biological target: T1, Tyrosine-protein phosphatase non-receptor type 1 (Homo sapiens); assay: Non-competitive inhibition of PTP1B (unknown origin) using p-nitrophenyl phosphate as substrate by Lineweaver-Burk plot analysis
[8] = biological target: T1, Tyrosine-protein phosphatase non-receptor type 1 (Homo sapiens); assay: Mixed type inhibition of PTP1B (unknown origin) using p-nitrophenyl phosphate as substrate by Lineweaver-Burk plot analysis

SMILES | inhibition [1] [%] | IC50 [2] [µM] | further results
O=c1cc(-c2ccc(O)cc2)oc2c([C@@H]3O[C@H](CO)[C@@H](O)[C@H](O)[C@H]3O)c(O)c([C@@H]3O[C@H](CO)[C@@H](O)[C@H](O)[C@H]3O)c(O)c12 | < 50 |  | 
COc1cc(O)cc2occ(-c3cc(O)c(O)c(CC=C(C)C)c3)c(=O)c12 |  |  | inhibition [3]: > 70%; inhibition [4]: 4%
CC1(C)C=Cc2c(ccc(-c3coc4cc(O)ccc4c3=O)c2O)O1 [GLABRONE] |  | 66.3 | 
O=C1C[C@@H](c2ccc(O[C@@H]3O[C@H](CO)[C@@H](O)[C@H](O)[C@H]3O)cc2)Oc2cc(O)ccc21 | < 50 |  | 
COc1c([C@H]2c3c(cc(O)c(O)c3OC)C=C(C(=O)c3ccc(O)cc3)[C@H]2C(=O)c2ccc(O)cc2)ccc(O)c1O (relative stereo) |  | 36.2 | 
COc1cc(O[C@@H]2O[C@H](CO)[C@@H](O)[C@H](O)[C@H]2O)c(-c2coc3cc(O)c(OC)cc3c2=O)cc1O | < 50 |  | 
O=c1cc(-c2ccc(O)cc2)oc2cc(O)ccc12 | < 50 |  | 
COc1ccc(-c2coc3cc(O)c(OC)cc3c2=O)cc1 | < 50 |  | 
CCCCCCCCCCCCCCCC(=O)C1=C(O)[C@@H](CO)OC1=O |  | 4.6 | 
CC1(C)C=Cc2cc([C@@H]3CC(=O)c4ccc5c(c4O3)C=CC(C)(C)O5)ccc2O1 | < 50 |  | 
CC1(C)C=Cc2c(ccc3c2OC[C@@H](c2ccc(O)cc2O)C3)O1 [GLABRIDIN] |  | 73.4 | 
COc1ccc([C@@H]2COc3c(ccc4c3C=CC(C)(C)O4)C2)c(O)c1 | < 50 |  | 
COc1c(CC=C(C)C)c(O)cc(O)c1-c1oc2cc(O)ccc2c1C |  |  | inhibition [3]: 35%; inhibition [4]: 4%
O=C1C[C@@H](c2ccc(O)cc2)Oc2cc(O)ccc21 | < 50 |  | 
COc1cc(O)ccc1/C=C/C(=O)c1ccc(O)cc1 | < 50 |  | 
O=c1cc(-c2ccc(O)cc2)oc2c([C@@H]3O[C@H](CO)[C@@H](O)[C@H](O)[C@H]3O)c(O)c([C@@H]3OC[C@H](O)[C@H](O)[C@H]3O)c(O)c12 | < 50 |  | 
O=c1c(O[C@@H]2O[C@H](CO)[C@@H](O)[C@H](O)[C@H]2O)c(-c2ccc(O)cc2)oc2cc(O)cc(O)c12 | < 50 |  | 
CC1(C)C=Cc2c(ccc3c2OC[C@@H](c2ccc(O)c4c2OC(C)(C)C=C4)C3)O1 | < 50 |  | 
CC1(C)C=Cc2c(ccc(C(=O)/C=C/c3ccc(O)cc3)c2O)O1 |  | 74.1 | 
COc1c(/C=C/C(=O)c2ccc(O)cc2)ccc2c1CC(C(C)(C)O)O2 (centres undefined) | < 50 |  | 
COc1ccc(-c2coc3cc(O)c(OC)cc3c2=O)cc1O [ODORATIN] |  | 70 | 

Continued, in another order:

inhibition [1] [%] | IC50 [2] [µM] | SMILES | further results
< 50 |  | O=C(/C=C/c1ccc(O[C@@H]2O[C@H](CO)[C@@H](O)[C@H](O)[C@H]2O)cc1)c1ccc(O)cc1O | 
< 50 |  | COc1c(/C=C/C(=O)c2ccc(O)cc2)ccc(O)c1O | 
< 50 |  | CC(C)=CCc1cc(-c2cc(=O)c3ccc(O)cc3o2)ccc1O | 
 | 44.3 | CC1(C)C=Cc2cc(/C=C/C(=O)c3ccc(O)cc3O)ccc2O1 | 
 | 52.2 | CC(C)=CCc1c(O)ccc2c1O[C@H](c1ccc3c(c1)CC(O)C(C)(C)O3)CC2=O (some centres undefined) | 
< 50 |  | O=c1c(O[C@@H]2O[C@H](CO)[C@@H](O)[C@H](O)[C@H]2O)c(-c2ccc(O)c(O)c2)oc2cc(O)cc(O)c12 | 
< 50 |  | CC(C)=CCc1c(O)ccc2c1oc(=O)c1c3ccc(O)cc3oc21 | 
< 50 |  | CC(C)=CCc1c(O)ccc2c1O[C@H](c1ccc3c(c1)C=CC(C)(C)O3)CC2=O | 
 | 59.5 | COc1c(/C=C/C(=O)c2ccc(O)c(O)c2)ccc(O)c1CC=C(C)C | 
 | 23.9 | CC(C)=CCc1c(O)ccc2c1O/C(=C\c1ccc(O)c(O)c1)C2=O [LICOAGROAURONE] | Kic [5]: 24 µM; inhibition [3]: 50%; inhibition [4]: 4%
< 50 |  | CC1(C)C=Cc2cc(C(=O)CC(=O)c3ccc(O)cc3)c(O)cc2O1 | 
< 50 |  | CC(C)=CCc1c(O)ccc2c1O[C@H](c1ccc3c(c1)C(O)C(O)C(C)(C)O3)CC2=O (some centres undefined) | 
 | 6 | CC(C)=CCc1cc(C(=O)C2(c3cc(O)c(O)cc3/C=C3\Oc4c(ccc(O)c4CC=C(C)C)C3=O)Oc3cc(O)c(CC=C(C)C)cc3C2=O)ccc1O (centres undefined) [LICOAGRONE] | Activity [6]: Active; inhibition [3]: > 70%; inhibition [4]: 4%; Kiuc [7]: 6.3 µM
 | 62.4 | CC(C)=CCc1cc([C@@H]2CC(=O)c3c(O)cc(O)c(CC=C(C)C)c3O2)ccc1O [LESPEDEZAFLAVANONE B] | 
< 50 |  | CC(C)=CCc1cc([C@@H]2CC(=O)c3ccc(O)cc3O2)ccc1O | 
 | 32.6 | CC(C)=CCc1cc(C(=O)CC(=O)c2cc(CC=C(C)C)c(O)cc2O)ccc1O | 
 | 75.1 | CC(C)=CCc1cc([C@H]2Oc3c(ccc(O)c3CC=C(C)C)C(=O)[C@@H]2O)ccc1O | 
 | 57 | COc1c(/C=C/C(=O)c2ccc(O)cc2)ccc(O)c1CC=C(C)C | 
 | 37.5 | CC(C)=CCc1cc([C@@H]2CC(=O)c3ccc(O)c(CC=C(C)C)c3O2)ccc1O [GLABROL] | 
 | 27.3 | CC(C)=CCc1c(O)ccc(C(=O)/C=C/c2ccc(O)cc2)c1O [ISOBAVACHALCONE] | inhibition [3]: > 70%; inhibition [4]: 4%; inhibition [8]: Active
 | 11.5 | CC(C)=CCc1cc([C@]23Oc4cc(O)c(CC=C(C)C)cc4C(=O)[C@H]2[C@H]2c4ccc(O)cc4O[C@@H]4Oc5c(ccc(O)c5CC=C(C)C)[C@@]42O3)ccc1O [LICOAGRODIN] | inhibition [3]: 50%; inhibition [4]: 4%; inhibition [8]: Active
 | 90.5 | CC(C)=CCc1cc(C[C@@H](O)C(=O)c2cc(CC=C(C)C)c(O)cc2O)ccc1O | 
< 50 |  | COc1ccc2c(c1)O[C@H]1c3ccc(O)c(CC=C(C)C)c3OC[C@@H]21 | 

— ChEMBL document CHEMBL2434949, “Evaluation of licorice flavonoids as protein tyrosine phosphatase 1B inhibitors” (Bioorg Med Chem Lett, 2013)
